Measured values from PMC6277555, “Short Symmetric-End Antimicrobial Peptides Centered on β-Turn Amino Acids Unit Improve Selectivity and Stability” (Frontiers in Microbiology, 2018).
Converted amounts (≈) assume the structure as drawn. Residues, ends and D or L forms follow the SMILES beside them.

What was measured:
E. coli UB1005 = type: cell-based, Escherichia coli
Procedure: (§1) The minimal inhibitory concentration (MIC) was determined according to a previously described method ([Chou et al., 2016]). Bacteria were cultured overnight to mid-log phase in MHB at 37°C and then diluted to give final concentrations ranging from 2 × 10^5 to 7 × 10^5 CFU/mL. Then, 50 μL of serial twofold dilutions of the peptides were added to each well in 96-well microtiter plates with a mixed solution containing 0.01% acetic acid and 0.2% bovine serum albumin (BSA, Sigma) was used to dissolve and dilute the peptides. Then, equal amounts of bacterial aliquots were incubated with the above peptide solution for 18–24 h at 37°C. The experiment was performed in triplicate using three replicates for each peptide and each bacterium. The broth was employed as a negative control and the broth with microbial cells was used as a positive control. The lowest concentration of peptide that prevented visible turbidity was defined as the MIC.

E. coli = test: Time killing assay; type: cell-based, Escherichia coli; conditions: mean of three independent assays
Procedure: The ability of peptides to kill bacterial cells was further investigated by analyzing the fraction of cell survival upon peptide treatment at various exposure times according to a previously described method ([Wiradharma et al., 2012]). Briefly, E. coli and S. aureus were treated at MIC and 2 × MIC concentrations with peptides. At various time periods (0, 5, 10, 30, 60, 90, 120, and 150 min), microbial suspensions were diluted at three different dilutions and plated on MHA plates. Microbial colonies were formed and counted after 24 h of incubation. The results were presented as the mean data from three independent assays.

B. pyocyaneum ATCC 27853 = type: cell-based, Bacterium pyocyaneum
Procedure: as §1

hRBCs = test: Hemolytic activity; type: cell-based, human; conditions: peptide concentration resulting in 5% hemolysis of hRBCs; PBS, 1 h, 37°C
Procedure: (§2) The hemolytic activity of the peptides was detected using a previously described modified method ([Wang et al., 2015]). One milliliter of fresh hRBCs was obtained from a healthy donor (Zhihua Wang, Harbin, China) in a polycarbonate tube containing heparin. The collected hRBCs were centrifuged at 1000 × g for 5 min at 4°C and resuspended in PBS buffer (pH 7.2). The hRBCs were washed three times and then incubated with an equal volume of the respective peptide dissolved in PBS for 1 h at 37°C. Then, the hRBC suspension was placed into a 96-well microtiter plater with 50 μL of tested peptide solution at different concentrations and the mixture was incubated for 1 h at 37°C. […] The minimum hemolytic concentrations (MHCs) were defined as the peptide concentrations resulting in 5% hemolysis.

[1] = tested on: Gram-negative and Gram-positive bacterial strains; test: Geometric mean of MICs and therapeutic index; type: cell-based
Procedure: as §2, §1

[2] = RP-HPLC retention time as measure of relative hydrophobicity; type: physicochemical; conditions: analytical RP-HPLC; hydrophobicity increases with retention time
Procedure: These peptides' […] identified via matrix-assisted laser desorption/ionization time-of-flight mass spectrometry (MALDI-TOF MS, Linear Scientific Inc., United States), using α-cyano-4-hydroxycinnamic acid as the matrix. […] Quantitative peptides were dissolved in deionized water and stored at -20°C before the assessments. The rest of the peptides were stored as powders at -20°C to prevent peptide degradation. The structures and molecular weights of the peptides were verified by MALDI-TOF MS. […] The relative hydrophobicity of the symmetric-end peptides was reliably reflected by their different HPLC retention times, and the hydrophobicity increased with increasing HPLC retention times ([Lee et al., 2014]; [Zhu et al., 2014]). The HPLC retention times for […]

[3] = LPS-binding assay (BODIPY-TR-cadaverine displacement); set-up: species or system Escherichia coli; conditions: BC displacement at the MIC concentration; relative to 10 μg/mL polymyxin B
Procedure: The binding affinities of peptides to LPS were examined using the BODIPY-TR-cadaverine fluorescent dye (BC, Sigma, United States) displacement assay, in which a probe bound to cell-free LPS results in dequenching of BC fluorescence. Stock solutions of LPS from E. coli O111:B4 (5 mg/mL; Sigma-Aldrich, China) and BC (2.5 mg/mL; Sigma-Aldrich, China) were prepared and diluted in Tris buffer (pH 7.4, 50 mM) to reach a final concentration of 50 μg/mL of LPS and 5 μg/mL BC. A 100 μL aliquot of the LPS-probe and peptide mixture (50 μL LPS and BC solutions at final concentrations of 25 μg/mL LPS and 2.5 μg/mL BODIPY-TR-cadaverine, 50 μL peptide with various concentrations ranging from 1 to 64 μM) was added in a sterile 96-well black plate. The fluorescence was measured on a spectrofluorophotometer (the Infinite 200 pro, Tecan, China) at excitation and emission wavelengths of 580 and 620 nm, respectively, with each test performed independently in triplicate. The values were converted to % ΔF (AU) using the following equation:
where Fobs is the observed fluorescence at a given peptide concentration, F0 is the initial fluorescence of BC with LPS in the absence of peptides, and F100 is the BC fluorescence with LPS cells upon addition of 10 μg/mL polymyxin B, which is a prototype LPS binder and was used as a positive control.

## CC[C@H](C)[C@H](N)C(=O)N[C@@H](Cc1c[nH]cn1)C(=O)N[C@@H](CCCCN)C(=O)N[C@@H](Cc1ccccc1)C(=O)N[C@@H](Cc1c[nH]c2ccccc12)C(=O)N[C@@H](CCCNC(=N)N)C(=O)N[C@@H](CS)C(=O)N[C@@H](CCCNC(=N)N)C(=O)N[C@@H](CCCNC(=N)N)C(=O)N[C@@H](CCCNC(=N)N)C(=O)N[C@@H](Cc1ccccc1)C(=O)N[C@@H](CS)C(=O)N[C@@H](CCCNC(=N)N)C(=O)N[C@@H](Cc1c[nH]c2ccccc12)C(=O)N[C@@H](Cc1ccccc1)C(=O)N[C@@H](CCCCN)C(=O)N[C@@H](Cc1c[nH]cn1)C(=O)N[C@H](C(N)=O)[C@@H](C)CC [PQ] (H-IHKFWRCRRRFCRWFKHI-NH2; N-terminus assumed)
E. coli UB1005
  MIC: 8 µM (≈ 20.6 µg/mL)
E. coli; peptide at 1 × MIC
  Time to kill E. coli: 30 min
E. coli; peptide at 2 × MIC
  Time to kill E. coli: 30 min
B. pyocyaneum ATCC 27853
  MIC: 8 µM (≈ 20.6 µg/mL)
hRBCs
  MHC (minimum hemolytic concentration): >128 µM
[1]; all ten tested strains
  GM (geometric mean of the MIC values): 9.8 µM
[1]; from MHC and GM
  Therapeutic index: 26.1
[2]
  Retained time (HPLC retention time): 12.385 min
[3]
  LPS binding, fluorescence (% ΔF): above 80%
